What was measured:
[1] = biological target: Inosine-5'-monophosphate dehydrogenase 2 (Homo sapiens, UniProt P12268); assay: Inhibition of human IMPDH2
[2] = Inhibition of N-terminal His-tagged Mycobacterium tuberculosis H37Rv IMPDH; conditions: read-out: Ki(app)
[3] = biological target: Inosine-5'-monophosphate dehydrogenase 1 (Homo sapiens, UniProt P20839); assay: Inhibition of human IMPDH1
Sequence of Inosine-5'-monophosphate dehydrogenase 1 (P20839 whole entry): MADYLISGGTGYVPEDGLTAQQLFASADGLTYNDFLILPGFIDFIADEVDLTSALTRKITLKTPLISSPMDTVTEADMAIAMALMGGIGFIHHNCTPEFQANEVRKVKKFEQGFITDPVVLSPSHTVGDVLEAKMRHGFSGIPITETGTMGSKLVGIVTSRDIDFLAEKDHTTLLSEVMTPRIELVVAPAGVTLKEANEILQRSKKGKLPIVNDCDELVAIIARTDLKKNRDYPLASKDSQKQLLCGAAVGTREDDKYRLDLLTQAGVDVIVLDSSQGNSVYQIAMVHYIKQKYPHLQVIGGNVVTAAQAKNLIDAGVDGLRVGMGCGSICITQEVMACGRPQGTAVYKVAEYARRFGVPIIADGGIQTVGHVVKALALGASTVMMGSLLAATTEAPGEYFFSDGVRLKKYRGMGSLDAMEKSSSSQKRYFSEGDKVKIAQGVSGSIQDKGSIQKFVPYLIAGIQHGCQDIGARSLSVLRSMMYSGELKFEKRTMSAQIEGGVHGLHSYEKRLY

In the case of `COc1c(C)c2c(c(O)c1C/C=C(\C)COP(=O)(O)CP(=O)(O)OC[C@H]1O[C@@H](n3cnc4c(N)ncnc43)[C@H](O)[C@@H]1O)C(=O)OC2`, the Ki ([1]; read-out: Ki(app)) is reported as 0.38 µM, the Ki [2] is reported as > 100 µM and the Ki ([3]; read-out: Ki(app)) is reported as 0.52 µM.
In the case of `COc1c(C)c2c(c(O)c1CCNCc1cn(C[C@H]3O[C@@H](n4cnc5c(N)ncnc54)[C@H](O)[C@@H]3O)nn1)C(=O)OC2`, the Ki ([1]; read-out: Ki) is reported as 2.2 µM, the Ki [2] is reported as > 100 µM and the Ki ([3]; read-out: Ki) is reported as 14 µM.
For `COc1c(C)c2c(c(O)c1CCn1cc(COC[C@H]3O[C@@H](n4cnc5c(N)ncnc54)[C@H](O)[C@@H]3O)nn1)C(=O)OC2`, the Ki ([1]; read-out: Ki) was 0.2 µM, the Ki [2] was > 100 µM and the Ki ([3]; read-out: Ki) was 1.5 µM.
For `COc1c(C)c2c(c(O)c1C/C=C(\C)Cn1cc(COC[C@H]3O[C@@H](n4cnc5c(N)ncnc54)[C@H](O)[C@@H]3O)nn1)C(=O)OC2`, the Ki ([3]; read-out: Ki) was 0.07 µM.
In the case of `C#Cc1nc(N)c2ncn([C@@H]3O[C@H](CNS(=O)(=O)CS(=O)(=O)NCCc4c(O)c5c(c(C)c4OC)COC5=O)[C@@H](O)[C@H]3O)c2n1`, the Ki [2] is reported as > 100 µM.
In the case of `COc1c(C)c2c(c(O)c1CCOP(=O)(O)CP(=O)(O)OC[C@H]1O[C@@H](n3cnc4c(N)nc(-c5ccccc5)nc43)[C@H](O)[C@@H]1O)C(=O)OC2`, the Ki [2] is reported as > 100 µM.
With `CCc1nc(N)c2ncn([C@@H]3O[C@H](CNS(=O)(=O)CS(=O)(=O)NCCc4c(O)c5c(c(C)c4OC)COC5=O)[C@@H](O)[C@H]3O)c2n1` the Ki [2] was > 100 µM.
In the case of `COc1c(C)c2c(c(O)c1CCNS(=O)(=O)CS(=O)(=O)NC[C@H]1O[C@@H](n3cnc4c(N)nc(-c5ccccc5)nc43)[C@H](O)[C@@H]1O)C(=O)OC2`, the Ki [2] is reported as > 100 µM.
Work on `COc1c(C)c2c(c(O)c1C/C=C(\C)CCC(=O)O)C(=O)OC2` [MYCOPHENOLIC ACID] yielded a Ki [2] of 62 µM.
